Results: patent publication US20240140941A1, “DERIVATIVE OF 2,5-DIKETOPIPERAZINE COMPOUND, AND PREPARATION METHOD THEREFOR, PHARMACEUTICAL COMPOSITION THEREOF AND USE THEREOF” (DALIAN WZ PROBIOTICS AD HEALTH CO., LTD, priority 2020, published 2024)
Structures can show the parent of a compound that is named as a salt. Where two headings read alike, the source gives them in different places.

What was measured:
NCI-H460 = test: Inhibition test on cell proliferation (MTT), NCI-H460; type: cell-based, human; settings: 72 hours of drug treatment, MTT, read-out: IC50 (nM) NCI-H460
Method in brief: (§1)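 Cells plated at 2000-6000 per well, allowed to adhere for 24 h, then exposed to serially diluted compound for 72 h at 37 °C, 5% CO2. Viability read by MTT reduction, with formazan dissolved in DMSO and absorbance taken at 490 nm. Inhibition rate calculated relative to untreated and zero-setting wells.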

[1] = Compound solubility experiment, Method 2: about 2 mg salt in 0.2 mL ultrapure water, dissolution observed; type: physicochemical; settings: 37 °C, thermodynamic from solid, salts, 37±1° C., shaken 24 hours
Experimental: Method 2: A 0.5 mL brown EP tube was taken, about 2 mg of hydrochloride of derivatives of 2,5-diketopiperazine compounds was weighed respectively, and 0.2 mL of ultrapure water was added thereto. The mixture was vortexed, put into an incubation shaker, maintained at a temperature of (37±1° C.), shaken at 100 r/min for 24 hours, so as to achieve full dissolution equilibrium. The dissolution of the mixture was observed.

HCC-LM3 = test: Inhibition test on cell proliferation (MTT), HCC-LM3; type: cell-based, human; settings: 72 hours of drug treatment, MTT, read-out: IC50 (nM) HCC-LM3
Method in brief: as §1

BxPC-3 = test: Inhibition test on cell proliferation (MTT), BxPC-3; type: cell-based, human; settings: 72 hours of drug treatment, MTT, read-out: IC50 (nM) BxPC-3
Method in brief: as §1

HT-29 = test: Inhibition test on cell proliferation (MTT), HT-29; type: cell-based, human; settings: 72 hours of drug treatment
Experimental: Tumor cells (NCI-H460, BxPC-3, HT-29, HCC-LM3) in the logarithmic growth phase were digested, centrifuged, and the supernatants were removed. Cells were resuspended by adding fresh culture medium, and counted using a cell counting plate. 100 μL of culture medium (containing cells) was added to a 96-well plate according to the standard of 2000 to 6000 cells per well and incubated in an incubator (37° C., 5% CO2) for 24 hours. After the cells were completely adhered to the wall, the test sample and Plinabulin were diluted to different concentrations using fresh culture medium, and 4 wells were set for each concentration. After 72 hours of drug treatment, the culture medium was removed, and 20 μL of MTT at a concentration of 5 mg/mL was added to each well. After 3-4 hours in the incubator, the MTT was discarded, and 100 μL of DMSO was added to each well, and placed in a 96-well plate shaker to completely dissolve the purple formazan. Subsequently, the absorbance (OD value) was detected at a wavelength of 490 nm using a microplate reader. The experiment also required setting up zero-setting wells (blank culture medium, MTT, DMSO). Cell inhibition rate=1−(OD value of drug-dosed group−OD value of zero-setting group)/(OD value of blank group−OD value of zero-setting group)×100%.

β-tubulin [2] = test: Immunofluorescence experiment, BxPC-3 cell line; type: cell-based, human; settings: for β-tubulin fluorescence value: BxPC-3 cell line, control 29873 ± 4013
Experimental: (§2) 1. Cell membrane rupture: After the cover slip was shaken to slight dryness, a circle was drawn using a histochemical pen at the position where the cells were evenly distributed in the middle of the cover slip (to prevent the antibody from flowing away). 50 to 100 μL of membrane rupture working solution was added, and incubated at room temperature for 20 min, washed 3 times with PBS, 5 min each time.
(§3) 2. Serum blocking: BSA was added dropwise in the circle to evenly cover the tissue and block at room temperature for 30 min. (The primary antibody was from goat and blocked with 10% normal rabbit serum, and the primary antibody from other sources was blocked with 3% BSA)
(§4) 3. Adding the primary antibody: The blocking solution was shaken off gently, and the primary antibody was added dropwise in the cell well plate (prepared in a certain proportion using PBS), and the cell culture plate was placed flat in a humid box and incubated overnight at 4° C.
(§5) 4. Adding secondary antibody: PBS was added to the cell culture plate, placed on a decolorizing shaker, shaken and washed for 3 times, 5 min each time. After shaking to slight dryness, a secondary antibody corresponding to the species of the primary antibody in the histochemical kit was added dropwise in the circle to cover the tissue, and incubated at room temperature for 50 min.
(§6) 5. DAPI restaining nucleus: The cover slip was placed in PBS (pH 7.4), shaken and washed 3 times on the decolorizing shaker, 5 min each time. After the cover slip was shaken to slight dryness, DAPI staining solution was added dropwise in the circle, and incubated at room temperature for 10 min in the dark.
(§7) 6. Sealing the cover slip: The cover slip was placed in PBS (pH 7.4), shaken and washed 3 times on the decolorizing shaker, 5 min each time. After the cover slip was shaken to slight dryness, the cover slip was sealed with antifade mounting medium.
(§8) 7. Microscopic examination and photographing: The cover slip was observed under a fluorescent microscope and images were collected.

β-tubulin [3] = test: Immunofluorescence experiment, NCI-H460 cell line; type: cell-based, human; settings: for β-tubulin fluorescence value: NCI-H460 cell line, control 20330 ± 1233
Experimental: as §2, §3, §4, §5, §6, §7, §8

BxPC-3 cell line = test: Cell apoptosis experiment (Annexin V/PI double staining, flow cytometer), BxPC-3; type: cell-based, human; settings: for Proportion of late apoptotic cells / Proportion of early apoptotic cells: BxPC-3; for Proportion of late apoptotic cells: blank control 0.94%; for Proportion of early apoptotic cells: blank control 1.11%
Experimental: (§9) 1. Cell collection: The cell culture dish was taken out, the culture medium was washed with PBS, digested with EDTA-free trypsin, collected into a centrifuge tube. The number of cells per sample was about 1×10^6/mL, and the centrifuge tube was centrifuged at 800 r/min for 3 min, and the culture medium was discarded.
(§10) 2. The residue was washed twice with frozen PBS, centrifuged at 800 r/min for 3 min each time, and the supernatant was discarded.
(§11) 3. Blank group, single-stained group and double-stained group were set, and 100 μL of binding buffer was added thereto. 5 μL of FITC-annexin V and 5 μL of PI were chosen according to different groups, mixed gently, incubated at room temperature in the dark for 15 min, then 400 μL of binding buffer was added thereto, and the cells were gently mixed.
(§12) 4. After filtering the cell suspension with a 300-mesh nylon membrane, the cell suspension was detected by a flow cytometer.

NCI-H460 cell line = test: Cell apoptosis experiment (Annexin V/PI double staining, flow cytometer), NCI-H460; type: cell-based, human; settings: for Proportion of late apoptotic cells / Proportion of early apoptotic cells: NCI-H460; for Proportion of late apoptotic cells: blank control 0.54%; for Proportion of early apoptotic cells: blank control 1.84%
Experimental: as §9, §10, §11, §12

[4] = Compound solubility experiment, Method 1: equilibrium solubility in pure water, LC-MS; type: physicochemical; settings: ultrapure water, 37±1° C., shaken 24 hours
Experimental: Method 1: A 1.5 mL brown EP tube was taken, about 1 mg of compound was weighed respectively, and 1 mL of ultrapure water was added thereto. The mixture was vortexed, and sonicated until the compound was no longer dissolved (the solution was turbid or had suspended particles). The mixture was put into an incubation shaker, maintained at a temperature of (37±1° C.), shaken at 100 r/min for 24 hours, so as to achieve full dissolution equilibrium. After 24 hours, the supernatant was quickly filtered through a 0.45 μm microporous membrane, and the initial filtrate was discarded. 200 μL of the renewed filtrate was taken and diluted with 200 μL of methanol. The assay was repeated at least three times. According to the chromatographic conditions, the sample was injected by LC-MS, and the peak area was measured and the equilibrium solubility of each 2,5-diketopiperazine derivative in pure water was calculated.

Compound | IC50 (NCI-H460; hydrochloride) | solubility at 24 h [1] | IC50 (HCC-LM3; hydrochloride) | IC50 (BxPC-3; hydrochloride) | IC50 (HT-29; hydrochloride) | further results
O=C(c1ccc(F)cc1)c1cccc(/C=c2\[nH]c(=O)/c(=C/c3ncn(CCCN4CCOCC4)c3C3CC3)[nH]c2=O)c1 [PLN-2-3-1, (3Z,6Z)-3-(3-(p-Fluorobenzoyl)phenyl)methylene-6-((5-cyclopropyl-1-(3-morpholinyl)propylimidazol-4-yl)methylene)piperazine-2,5-dione, hydrochloride] | 5.6 ± 0.41 nM | > 10000 µg/mL | – | – | – | β-tubulin fluorescence value (β-tubulin [2]): 9000; number of tubulin distributed radially (β-tubulin [2]; BxPC-3 cells, in words): significantly reduced; β-tubulin fluorescence value (β-tubulin [3]): 7822; number of tubulin distributed radially (β-tubulin [3]; NCI-H460 cells, in words): significantly reduced; number of apoptosis (BxPC-3 cell line; BxPC-3, in words): significantly increased; Proportion of late apoptotic cells (BxPC-3 cell line): 5.83%; Proportion of early apoptotic cells (BxPC-3 cell line): 2.75%; number of apoptosis (NCI-H460 cell line; NCI-H460, in words): significantly increased; Proportion of late apoptotic cells (NCI-H460 cell line): 6.76%; Proportion of early apoptotic cells (NCI-H460 cell line): 3.08%
CC(C)c1c(/C=c2\[nH]c(=O)/c(=C/c3ccccc3)[nH]c2=O)ncn1CCCN1CCOCC1 [PLN-2-5-1, (3Z,6Z)-3-Benzylidene-6-((5-isopropyl-1-(3-morpholinyl)propylimidazol-4-yl)methylene)piperazine-2,5-dione, hydrochloride] | 17.8 ± 0.55 nM | > 10000 µg/mL | 12.4 ± 2.68 nM | 9.73 ± 0.3 nM | 11.8 ± 5.52 nM | –
O=c1[nH]/c(=C\c2ncn(CCCN3CCOCC3)c2C2CC2)c(=O)[nH]/c1=C\c1cccc(F)c1 [PLN-2-10-1, (3Z,6Z)-3-(3-Fluorophenyl)methylene-6-((5-cyclopropyl-1-(3-morpholinyl)propylimidazol-4-yl)methylene)piperazine-2,5-dione, hydrochloride] | 18.37 ± 0.13 nM | > 10000 µg/mL | 12 ± 2.67 nM | 12 ± 1.27 nM | 11.1 ± 1.39 nM | –
CC(C)c1c(/C=c2\[nH]c(=O)/c(=C/c3cc(F)ccc3F)[nH]c2=O)ncn1CCCN1CCOCC1 [PLN-2-7, (3Z,6Z)-3-(2,5-difluorophenyl)methylene-6-((5-isopropyl-1-(3-morpholinyl)propylimidazol-4-yl)methylene)piperazine-2,5-dione] | – | – | – | – | – | IC50 (NCI-H460; Homo sapiens, NCI-H460, 72 h): 6.12 ± 0.43 nM; solubility at 24 h ([4]; 37 °C, thermodynamic from solid): < 0.5 µg/mL; IC50 (HCC-LM3; Homo sapiens, HCCLM3, 72 h): 3.3 ± 1.88 nM; melting point: 211.6 to 213.6 °C; IC50 (BxPC-3; Homo sapiens, BXPC-3, 72 h): 4.92 ± 1.48 nM; IC50 (HT-29; Homo sapiens, HT-29, 72 h): 4.03 ± 0.19 nM
CC(C)(C)c1[nH]cnc1/C=c1\[nH]c(=O)/c(=C/c2ccccc2)[nH]c1=O [Plinabulin, reference compound] | – | – | – | – | – | β-tubulin fluorescence value (β-tubulin [2]): 11000; IC50 (NCI-H460; Homo sapiens, NCI-H460, 72 h): 11.6 ± 0.96 nM; Solubility [4]: <0.25 µg/mL; β-tubulin fluorescence value (β-tubulin [3]): 8133; IC50 (HCC-LM3; Homo sapiens, HCCLM3, 72 h): 8.31 ± 0.23 nM; Proportion of late apoptotic cells (BxPC-3 cell line): 3.85%; Proportion of early apoptotic cells (BxPC-3 cell line): 1.66%; IC50 (BxPC-3; Homo sapiens, BXPC-3, 72 h): 5.41 ± 0.76 nM; IC50 (HT-29; Homo sapiens, HT-29, 72 h): 5.74 ± 0.73 nM; Proportion of late apoptotic cells (NCI-H460 cell line): 5.18%; Proportion of early apoptotic cells (NCI-H460 cell line): 1.90%
CC(C)c1c(/C=c2\[nH]c(=O)/c(=C/c3cc(F)cc(F)c3)[nH]c2=O)ncn1CCCN1CCOCC1 [PLN-2-62-1, (3Z,6Z)-3-(3,5-Difluorophenyl)methylene-6-((5-isopropyl-1-(3-morpholinyl)propylimidazol-4-yl)methylene)piperazine-2,5-dione, hydrochloride] | 6.87 ± 0.47 nM | > 10000 µg/mL | 5.32 ± 1.38 nM | 3.75 ± 0.06 nM | 3.79 ± 0.04 nM | –
CC(C)c1c(/C=c2\[nH]c(=O)/c(=C/c3cc(F)ccc3F)[nH]c2=O)ncn1CCCN1CCOCC1 [PLN-2-7-1, (3Z,6Z)-3-(2,5-Difluorophenyl)methylene-6-((5-isopropyl-1-(3-morpholinyl)propylimidazol-4-yl)methylene)piperazine-2,5-dione, hydrochloride] | 6.93 ± 4.85 nM | > 10000 µg/mL | 4 ± 1.5 nM | 4.83 ± 0.2 nM | 5.61 ± 1.96 nM | –

More lines, main results first:

IC50 (NCI-H460; hydrochloride) | solubility at 24 h [1] | IC50 (HCC-LM3; hydrochloride) | IC50 (BxPC-3; hydrochloride) | IC50 (HT-29; hydrochloride) | Compound | further results
94.7 ± 9.48 nM | > 10000 µg/mL | 66.6 ± 4.98 nM | 50.1 ± 7.79 nM | – | CC(C)c1c(/C=c2\[nH]c(=O)/c(=C/c3ccc(F)c(F)c3)[nH]c2=O)ncn1CCCN1CCOCC1 [PLN-2-63-1, hydrochloride] | –
23.8 ± 1.36 nM | > 10000 µg/mL | – | – | – | O=c1[nH]/c(=C\c2ncn(CCCN3CCOCC3)c2C2CC2)c(=O)[nH]/c1=C\c1cccc(Oc2ccc(F)cc2)c1 [PLN-2-4-1, (3Z,6Z)-3-(3-(p-Fluorophenoxy)phenyl)methylene-6-((5-cyclopropyl-1-(3-morpholinyl)propylimidazol-4-yl)methylene)piperazine-2,5-dione, hydrochloride] | –
8.87 ± 0.05 nM | > 10000 µg/mL | 6.99 ± 0.59 nM | 5.76 ± 1 nM | 6.22 ± 1.61 nM | CC(C)c1c(/C=c2\[nH]c(=O)/c(=C/c3cccc(F)c3)[nH]c2=O)ncn1CCCN1CCOCC1 [PLN-2-9-1, (3Z,6Z)-3-(3-Fluorophenyl)methylene-6-((5-isopropyl-1-(3-morpholinyl)propylimidazol-4-yl)methylene)piperazine-2,5-dione, hydrochloride] | –
2.8 ± 1.15 nM | > 10000 µg/mL | 1.76 ± 0.3 nM | 1.21 ± 0.21 nM | 1.5 ± 0.58 nM | CC(C)c1c(/C=c2\[nH]c(=O)/c(=C/c3cccc(Oc4ccc(F)cc4)c3)[nH]c2=O)ncn1CCCN1CCOCC1 [PLN-2-2-1, hydrochloride] | –
